Measurements from the NIST ThermoML archive (doi:10.1021/je1011604).
± gives the expanded uncertainty stated by the source.

Key:
[1] = xn = mol fraction of the nth substance listed; conditions: 101 kPa, Liquid, Capillary tube (Ostwald / Ubbelohde) method
[2] = 101.33 kPa, Liquid, Pycnometric method

Compound: CCC(C)=O [butanone] + c1ccccc1
- viscosity ([1]; 303.15 K, x1 = 0.101): 0.534 ± 0.011 mPa·s
- viscosity ([1]; 303.15 K, x1 = 0.1999): 0.508 ± 0.011 mPa·s
- viscosity ([1]; 303.15 K, x1 = 0.2988): 0.478 ± 0.011 mPa·s
- viscosity ([1]; 303.15 K, x1 = 0.3969): 0.452 ± 0.011 mPa·s
- viscosity ([1]; 303.15 K, x1 = 0.4996): 0.432 ± 0.011 mPa·s
- viscosity ([1]; 303.15 K, x1 = 0.5988): 0.417 ± 0.011 mPa·s
- viscosity ([1]; 303.15 K, x1 = 0.6993): 0.401 ± 0.011 mPa·s
- viscosity ([1]; 303.15 K, x1 = 0.7931): 0.389 ± 0.011 mPa·s
- viscosity ([1]; 303.15 K, x1 = 0.8961): 0.376 ± 0.011 mPa·s
- viscosity ([1]; 303.15 K, x1 = 1): 0.367 ± 0.011 mPa·s
- viscosity ([1]; 313.15 K, x1 = 0.101): 0.473 ± 0.011 mPa·s
- viscosity ([1]; 313.15 K, x1 = 0.1999): 0.448 ± 0.011 mPa·s
- viscosity ([1]; 313.15 K, x1 = 0.2988): 0.427 ± 0.011 mPa·s
- viscosity ([1]; 313.15 K, x1 = 0.3969): 0.409 ± 0.011 mPa·s
- viscosity ([1]; 313.15 K, x1 = 0.4996): 0.393 ± 0.011 mPa·s
- viscosity ([1]; 313.15 K, x1 = 0.5988): 0.378 ± 0.011 mPa·s
- viscosity ([1]; 313.15 K, x1 = 0.6993): 0.367 ± 0.011 mPa·s
- viscosity ([1]; 313.15 K, x1 = 0.7931): 0.355 ± 0.011 mPa·s
- viscosity ([1]; 313.15 K, x1 = 0.8961): 0.345 ± 0.011 mPa·s
- viscosity ([1]; 313.15 K, x1 = 1): 0.334 ± 0.011 mPa·s
- viscosity ([1]; 323.15 K, x1 = 0.101): 0.422 ± 0.011 mPa·s
- viscosity ([1]; 323.15 K, x1 = 0.1999): 0.403 ± 0.011 mPa·s
- viscosity ([1]; 323.15 K, x1 = 0.2988): 0.384 ± 0.011 mPa·s
- viscosity ([1]; 323.15 K, x1 = 0.3969): 0.369 ± 0.011 mPa·s
- viscosity ([1]; 323.15 K, x1 = 0.4996): 0.354 ± 0.011 mPa·s
- viscosity ([1]; 323.15 K, x1 = 0.5988): 0.343 ± 0.011 mPa·s
- viscosity ([1]; 323.15 K, x1 = 0.6993): 0.333 ± 0.011 mPa·s
- viscosity ([1]; 323.15 K, x1 = 0.7931): 0.324 ± 0.011 mPa·s
- viscosity ([1]; 323.15 K, x1 = 0.8961): 0.316 ± 0.011 mPa·s
- viscosity ([1]; 323.15 K, x1 = 1): 0.306 ± 0.011 mPa·s

Compound: c1ccccc1 [benzene]
- mass density ([2]; 303.15 K): 868.1 ± 0.5 kg/m3
- mass density ([2]; 313.15 K): 857.4 ± 0.6 kg/m3
- mass density ([2]; 323.15 K): 846.6 ± 0.6 kg/m3

Compound: c1ccccc1 [benzene] + CCC(C)=O
- viscosity ([1]; 303.15 K, x2 = 0): 0.564 ± 0.011 mPa·s
- viscosity ([1]; 313.15 K, x2 = 0): 0.498 ± 0.011 mPa·s
- viscosity ([1]; 323.15 K, x2 = 0): 0.442 ± 0.011 mPa·s

Compound: CCC(C)=O [butanone]
- mass density ([2]; 303.15 K): 794.6 ± 0.8 kg/m3
- mass density ([2]; 313.15 K): 784 ± 0.8 kg/m3
- mass density ([2]; 323.15 K): 773.3 ± 0.8 kg/m3
